Reference: publication PMC11073699, “Odorant receptors for floral- and plant-derived volatiles in the yellow fever mosquito, Aedes aegypti (Diptera: Culicidae)” (PLOS ONE, 2024)
Where “and” joins values, the source holds several entries; their conditions need not be identical. Equal values may be shown once.

Legend:
[1] = biological target: T1, AaegOR6 (Aedes aegypti, UniProt A0A1S4G757); assay: Two-electrode voltage clamp of Xenopus laevis oocytes expressing AaegOR6/Orco (blends, unitary compounds, concentration-response); format: cell-based; details: for Raw data (Responses in nA) Oocyte 1 / Raw data (Responses in nA) Oocyte 2 / Raw data (Responses in nA) Oocyte 3 / Raw data (Responses in nA) Oocyte 4 / Raw data (Responses in nA) Oocyte 5 / Raw data (Responses in nA) Oocyte 6 / Raw data (Responses in nA) Oocyte 7 / Raw data (Responses in nA) Oocyte 8: Indoles 2 unitary compounds
T1 sequence (A0A1S4G757 1-398): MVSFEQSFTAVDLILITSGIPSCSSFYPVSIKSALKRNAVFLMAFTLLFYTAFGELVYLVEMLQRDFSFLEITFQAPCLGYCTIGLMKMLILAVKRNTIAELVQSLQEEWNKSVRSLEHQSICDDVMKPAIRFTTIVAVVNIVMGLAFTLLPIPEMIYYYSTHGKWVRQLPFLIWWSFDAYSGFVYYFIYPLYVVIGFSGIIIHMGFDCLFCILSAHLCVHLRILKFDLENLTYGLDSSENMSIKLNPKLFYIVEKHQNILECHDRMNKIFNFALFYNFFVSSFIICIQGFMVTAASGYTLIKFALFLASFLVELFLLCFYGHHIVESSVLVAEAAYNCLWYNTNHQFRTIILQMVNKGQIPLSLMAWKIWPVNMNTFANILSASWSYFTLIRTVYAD
T1 sequence (Q178U6 1-478 partner): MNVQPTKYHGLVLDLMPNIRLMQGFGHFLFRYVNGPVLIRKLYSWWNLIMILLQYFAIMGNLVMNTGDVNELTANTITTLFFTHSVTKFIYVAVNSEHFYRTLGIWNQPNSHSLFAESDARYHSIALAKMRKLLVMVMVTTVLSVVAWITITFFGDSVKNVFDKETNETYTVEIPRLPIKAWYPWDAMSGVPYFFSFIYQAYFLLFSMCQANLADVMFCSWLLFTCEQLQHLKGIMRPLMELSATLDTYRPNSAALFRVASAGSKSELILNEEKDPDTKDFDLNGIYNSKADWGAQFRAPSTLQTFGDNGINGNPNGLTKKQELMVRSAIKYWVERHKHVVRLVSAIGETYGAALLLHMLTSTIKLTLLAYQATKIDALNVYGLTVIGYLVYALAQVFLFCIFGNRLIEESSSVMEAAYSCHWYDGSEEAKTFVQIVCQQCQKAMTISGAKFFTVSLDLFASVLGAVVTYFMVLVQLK
Text: (§1) The coding regions of ten AaegOR genes of interest (S3 File) and AaegOrco were synthesized by Twist Bioscience (San Francisco, CA, USA) and cloned into the pENTR plasmid. The Gateway LR directional cloning system (Invitrogen Corp., Carlsbad, CA, USA) was utilized to subclone AaegOR coding regions into the pSP64t-RFA oocyte expression plasmid. Plasmids were purified using the GeneJet Plasmid Miniprep Kit (ThermoFisher Scientific, Waltham, MA, USA). Purified plasmids were sequenced in both directions to confirm coding regions.
(§2) Chemical compounds (S6 File) used in the deorphanization of AaegORs were purchased from Acros Organics (Morris, NJ, USA), Alfa Aesar (Ward Hill, MA, USA), and ThermoFisher Scientific (Waltham, MA, USA) at the highest purity available. Compounds were stored as 1M stocks in 100% DMSO. Serial dilutions of each compound were prepared in 10% DMSO and blended by chemical class.
(§3) pSP64t-RFA: AaegOR clones were linearized using Xbal, and cRNAs were synthesized using the mMESSAGE mMACHINE ® SP6 kit (Life Technologies, Carlsbad, CA, USA). Xenopus laevis stage V-VII oocytes purchased from Xenopus1 (Dexter, MI, USA) were stored at 18°C in Incubation medium (ND96 96 with 5% dialyzed horse serum, 50μg/mL gentamycin, 100μg/mL streptomycin, 100μg/mL penicillin, and 550μg/mL sodium pyruvate). 30nL of cRNA was injected into multiple oocytes using a microinjection syringe pump (World Precision Instruments, Sarasota, FL, USA) maintained at 18°C for 48–72 hrs. Odorant blends were perfused across individual oocytes for 10–15 seconds, held at a resting membrane potential of -80 mV using an OC-725C oocyte clamp (Warner Instruments, LLC, Hamden, CT, USA). Induced currents were measured indirectly using the two-electrode voltage clamp technique (TEVC). Following each stimulus, currents were allowed to return to baseline before further stimulation. Data was captured using the Digidata 1550 B digitizer and PClamp10 software (Molecular Devices, San Jose, CA, USA). Concentration-response curves were generated by perfusing unitary odorants over oocytes at increasing concentrations from [10^-3M] to [10^-9M]. Data were analyzed using GraphPad Prism 8 (GraphPad Software Inc., La Jolla, CA, USA). At least two biological replicates were conducted at each concentration and for each compound. Data for at least seven oocytes responding to each compound was analyzed (S7 File).

[2] = biological target: T2, AaegOR71 (Aedes aegypti, UniProt A0A3S7SHD4); assay: Two-electrode voltage clamp of Xenopus laevis oocytes expressing AaegOR71/Orco (blends, unitary compounds, concentration-response); format: cell-based; details: for Raw Data (Response in nA) Oocyte 1 / Raw Data (Response in nA) Oocyte 2 / Raw Data (Response in nA) Oocyte 3 / Raw Data (Response in nA) Oocyte 4 / Raw Data (Response in nA) Oocyte 5 / Raw Data (Response in nA) Oocyte 6 / Raw Data (Response in nA) Oocyte 7 / Raw Data (Response in nA) Oocyte 8: Indoles 2 unitary compounds; for Raw Data (Response in nA): concentration-response, Oocytes 1-8 individually
T2 sequence (A0A3S7SHD4 1-415): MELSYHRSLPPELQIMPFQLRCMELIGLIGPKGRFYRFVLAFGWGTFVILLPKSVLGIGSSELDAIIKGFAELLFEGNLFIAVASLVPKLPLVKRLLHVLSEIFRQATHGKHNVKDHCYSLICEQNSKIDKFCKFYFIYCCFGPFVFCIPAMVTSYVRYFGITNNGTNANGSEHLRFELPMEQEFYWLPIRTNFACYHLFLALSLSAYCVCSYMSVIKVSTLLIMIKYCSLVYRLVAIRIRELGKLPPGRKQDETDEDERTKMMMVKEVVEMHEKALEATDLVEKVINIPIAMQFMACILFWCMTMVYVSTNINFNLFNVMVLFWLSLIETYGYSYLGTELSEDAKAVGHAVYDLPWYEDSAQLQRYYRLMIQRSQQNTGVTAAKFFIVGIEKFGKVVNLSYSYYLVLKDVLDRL
T2 sequence (Q178U6 1-478 partner): T1 sequence (Q178U6 1-478 partner)
Text: as §1, §2, §3

Structure (SMILES)	Raw data (Responses in nA) Oocyte 1 [1] [nA]	Raw data (Responses in nA) Oocyte 2 [1] [nA]	Raw data (Responses in nA) Oocyte 3 [1] [nA]	Raw data (Responses in nA) Oocyte 4 [1] [nA]	Raw data (Responses in nA) Oocyte 5 [1] [nA]	Raw data (Responses in nA) Oocyte 6 [1] [nA]	Raw data (Responses in nA) Oocyte 7 [1] [nA]	Raw data (Responses in nA) Oocyte 8 [1] [nA]	Raw Data (Response in nA) Oocyte 1 [2] [nA]	Raw Data (Response in nA) Oocyte 2 [2] [nA]	Raw Data (Response in nA) Oocyte 3 [2] [nA]	Raw Data (Response in nA) Oocyte 4 [2] [nA]	Raw Data (Response in nA) Oocyte 5 [2] [nA]	Raw Data (Response in nA) Oocyte 6 [2] [nA]	Raw Data (Response in nA) Oocyte 7 [2] [nA]	Raw Data (Response in nA) Oocyte 8 [2] [nA]	further results
O=C(O)Cc1c[nH]c2ccccc12 [1H-Indole-3-acetic acid]	10.0	10.0	10.0	0.0	10.0	0.0	0.0	0.0	0	20	0	15	20	60	15	60	
OCc1c[nH]c2ccccc12 [3-Indolemethanol]	0.0	0.0	10.0	0.0	0.0	0.0	0.0	0.0	240	0	0	0	0	0	0	0	
Oc1cccc2[nH]ccc12 [4-Hydroxyindole]	0.0	0.0	5.0	0.0	0.0	0.0	0.0	0.0	20	30	0	30	0	30	30	10	
O=C1CCOc2ccccc21 [4-chromanone, 4-Chromanone]	70.0	50.0	90.0	170.0	70.0	650.0	510.0	510.0	0	310	15	140	15	60	30	20	EC50 ([1]; AaegOR6/Orco expressing oocytes, TEVC, concentration-response of normalized current): ~6.84 µM and 6.84 µM
O=Cc1ccnc2ccccc12 [4-quinolinecarboxaldehyde, 4-Quinolinecarboxaldehyde]	0.0	0.0	0.0	0.0	0.0	0.0	0.0	0.0	1070	2930	590	1710	390	930	330	410	EC50 ([2]; AaegOR71/Orco expressing oocytes, TEVC, concentration-response of normalized current): ~0.96 µM and 0.96 µM; Raw Data (Response in nA) ([2]; first series, 1e-9 M): 10 nA (2×) and 0 nA (5×) and 30 nA; Raw Data (Response in nA) ([2]; first series, 5e-9 M): 30 nA (2×) and 10 nA (2×) and 20 nA and 0 nA and 5 nA (2×); Raw Data (Response in nA) ([2]; first series, 1e-8 M): 60 nA (2×) and 15 nA and 30 nA and 25 nA and 5 nA and 10 nA (2×); Raw Data (Response in nA) ([2]; first series, 5e-8 M): 140 nA and 35 nA and 70 nA and 25 nA (2×) and 110 nA and 10 nA and 30 nA; Raw Data (Response in nA) ([2]; first series, 1e-7 M): 200 nA and 50 nA (3×) and 120 nA and 30 nA (2×) and 190 nA; Raw Data (Response in nA) ([2]; first series, 5e-7 M): 500 nA and 150 nA and 320 nA and 90 nA (2×) and 380 nA and 100 nA and 120 nA; Raw Data (Response in nA) ([2]; first series, 1e-6 M): 620 nA and 180 nA and 410 nA and 125 nA and 470 nA and 140 nA and 150 nA (2×); Raw Data (Response in nA) ([2]; second series (unlabelled), 5e-9 M): 8.84 nA and 16 nA and 25 nA and 15 nA (2×) and 5 nA (2×) and 0 nA; Raw Data (Response in nA) ([2]; second series (unlabelled), 1e-8 M): 20 nA (3×) and 40 nA (2×) and 60 nA and 150 nA and 30 nA; Raw Data (Response in nA) ([2]; second series (unlabelled), 5e-8 M): 40 nA (4×) and 80 nA and 100 nA and 160 nA and 20 nA; Raw Data (Response in nA) ([2]; second series (unlabelled), 1e-7 M): 60 nA (3×) and 120 nA (2×) and 190 nA and 40 nA and 50 nA; Raw Data (Response in nA) ([2]; second series (unlabelled), 5e-7 M): 140 nA and 240 nA and 260 nA and 110 nA and 80 nA (2×) and 300 nA and 50 nA; Raw Data (Response in nA) ([2]; second series (unlabelled), 1e-6 M): 180 nA and 290 nA (2×) and 140 nA
Nc1cccc2cnccc12 [5-Aminoisoquinoline]	0.0	0.0	0.0	0.0	0.0	0.0	0.0	0.0	130	200	40	40	0	10	0	10	
